In US12077555B2, “STAT degraders and uses thereof” (Kymera Therapeutics, Inc., priority 2019, dated 2024):

What was measured:
SU-DHL-1 cells [1] = experiment: Wash-out study in SU-DHL-1 cells; type: cell-based; conditions: 1 uM compound for 24 and 48 hr, then wash-out; FIGS. 10 and 18
Procedure: I-103 and I-174 were tested in the wash-out protocol.
• Seed cell suspension in T75 flasks and treat with 0.1% DMSO and 1 uM compound for 24 and 48 hr. Day 0 • Collect cell suspension from the flasks in conical tubes after 24 and 48 hr, spin down at 1,000 rpm for 5 min. • Remove supernatant. Wash with PBS, spin down at 1,000 rpm for 5 min, repeat PBS wash one more time. • Seed the cells at 2,000 cells per well in 384-well plates for growth inhibition measurement via CellTiterGlo (CTG) and 10,000 cells per well in 96-well plates for STAT3 levels via MSD. • Measure T0 for CTG and collect pellets to measure levels of STAT3 by MSD Day 1-4 • Measure CTG every day for 4 days post wash-out. • Collect pellets and measure levels of STAT3 by MSD every day for 4 days post wash-out. Growth inhibition was normalized to T0 and graphed as % control.

SU-DHL-1 cells [2] = experiment: CellTiter-Glo cell viability, SU-DHL-1; type: cell-based
Procedure: Compound-mediated viability effect on MOLM-16 and SU-HDL-1 cells was quantitatively determined using the CellTiter-Glo® Luminescent Cell Viability Assay kit from Promega (Catalog number G7572) following manufacturer's recommended procedures.
Day 0: 60 nL of compounds/DMSO were stamped to the cell plate as on the recommended platemap. Compound precipitation was observed. Cells were centrifuged at 800 rpm for 5 min, suspended with culture medium, and counted with Countess (Invitrogen). The cell density was adjusted to the recommend concentration. 30 μL of cell solution (2000 cells/well) was added to the assay plate according to the platemap. 30 μL of media was added to column 2 and column 23 as on the platemap. The final concentration of the compounds except for the reference compound Paclitaxel was from 10 μM, 3-fold dilution and 11 dose (Paclitaxel started at 500 nM). The final DMSO concentration was 0.2%. The assay plate was incubated at 37° C., 5% CO2 for 4 days.
Day 4: The assay plate was equilibrated to RT for ˜10 minutes. Compound precipitation was observed (96h). To determine cell viability, 30 μL of CellTiter Glo reagent was added to each well and the assay plate was centrifuged at 1000 rpm for 30 second, incubated at room temperature for 10 min, and analyzed by detecting the luminescence using a multimode plate reader (EnVision 2105, PerkinElmer). The data was then analyzed by software Prism 7.0 from GraphPad and the dose response curves were fit using a three-parameter logistic equation to calculate EC50.

SU-DHL-1 tumor cells = experiment: Xenograph tumor study, SU-DHL-1; type: in vivo, NOD SCID mice; conditions: for tumor volume, 5 days / tumor volume, 10 days / tumor volume, 15 days / tumor volume, 20 days: SUDHL-1 xenograph, 2.5-30 mg/kg, 2 days on/5 days off
Procedure: (§1) Animals: 50 6-8 week old female NOD SCID mice weighing 18 to 20 grams. 25 mice were used in each study.
(§2) Method for Tumor Inoculation: Each mouse was inoculated subcutaneously with SU-DHL-1 tumor cells (1×107+Matrigel) or SUP-M2 tumor cells (5×106+Matrigel) in 0.1 ml of RPMI1640 medium supplemented with 10% FBS, 100 U/ml penicillin and […] streptomycin for tumor development. Mice were then assigned to groups such that the mean tumor volume was the same for each treatment group and time point. […] Vehicle was 25% HP-β-CD in water adjusted to pH 7.4.
(§3) Measurement Parameters: Study animals were monitored not only for tumor growth but also behavior such as mobility, food and water consumption (by cage side checking only), body weight (BW), eye/hair matting and any other abnormal effect. Any mortality and/or abnormal clinical signs was recorded. Sponsor was notified immediately if abnormal clinical signs, or if tolerability issues were observed. Body weights of all animals were measured and recorded twice per week. The measurement of tumor size was conducted twice weekly with a caliper and recorded. The tumor volume (mm3) was estimated using the formula: TV=a×b2/2, where “a” and “b” are long and short diameters of a tumor, respectively.

SUP-M2 cells = experiment: CellTiter-Glo cell viability, SUP-M2; type: cell-based
KARPAS-299 cells = experiment: CellTiter-Glo cell viability, KARPAS-299; type: cell-based
STAT3 = STAT3 (Homo sapiens, UniProt P40763); experiment: STAT3 degradation (DC50) in multiple ALK+ALCL cell lines; type: cell-based; conditions: dose response curves, FIG. 14
SUP-M2 tumor cells = experiment: Xenograph tumor study, SUP-M2; type: in vivo, NOD SCID mice; conditions: ALK+ALCL xenograph model SUP-M2, intermittent dosing, FIG. 20
Procedure: as §1, §2, §3

KI-JK cells = experiment: CellTiter-Glo cell viability, KI-JK; type: cell-based

Chain of STAT3 (P40763 whole entry): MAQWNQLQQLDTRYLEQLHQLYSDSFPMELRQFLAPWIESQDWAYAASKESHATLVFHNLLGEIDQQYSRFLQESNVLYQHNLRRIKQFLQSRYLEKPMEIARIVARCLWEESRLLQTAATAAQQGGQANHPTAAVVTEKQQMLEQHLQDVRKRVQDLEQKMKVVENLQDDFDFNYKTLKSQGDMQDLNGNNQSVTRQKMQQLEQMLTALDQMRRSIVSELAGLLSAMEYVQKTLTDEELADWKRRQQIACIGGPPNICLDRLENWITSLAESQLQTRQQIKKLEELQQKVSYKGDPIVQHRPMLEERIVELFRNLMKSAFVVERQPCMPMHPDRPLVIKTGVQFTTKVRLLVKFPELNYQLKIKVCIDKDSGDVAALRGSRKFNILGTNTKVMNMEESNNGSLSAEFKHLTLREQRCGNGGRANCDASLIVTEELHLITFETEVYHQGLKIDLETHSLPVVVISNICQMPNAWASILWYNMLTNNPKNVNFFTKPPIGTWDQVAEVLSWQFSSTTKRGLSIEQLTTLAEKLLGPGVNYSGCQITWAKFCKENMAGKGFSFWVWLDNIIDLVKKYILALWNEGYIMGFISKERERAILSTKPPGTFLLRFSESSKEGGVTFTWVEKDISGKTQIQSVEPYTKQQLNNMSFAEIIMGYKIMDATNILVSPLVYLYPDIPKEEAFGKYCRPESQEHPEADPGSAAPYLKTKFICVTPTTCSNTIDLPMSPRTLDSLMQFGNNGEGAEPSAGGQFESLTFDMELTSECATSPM

Q: With `Cn1c(=O)n(C2CCC(=O)NC2=O)c2ccc(C[C@H]3CC[C@@H](CC(=O)N4CC[C@H]5CC[C@@H](C(=O)N[C@@H](CCC(N)=O)C(=O)NC(c6ccccc6)c6ccccc6)N5C(=O)[C@@H](NC(=O)c5cc6cc(C(=O)P(=O)(O)O)ccc6[nH]5)C4)CC3)cc21` (stereo partly drawn) [Compound I-174, 2-[[(5S,8S,10aR)-8-[[(1S)-3-carbamoyl-1-(diphenylmethylcarbamoyl)propyl]carbamoyl]-6-oxo-3-[2-[(1s,4s)-4-[[1-(2,6-dioxopiperidin-3-yl)-3-methyl-2-oxo-1,3-benzodiazol-5-yl]methyl]cyclohexyl]acetyl]-octahydropyrrolo[1,2-a][1,5]diazocin-5-yl]carbamoyl]-1H-indole-5-carbonylphosphonic acid] as the compound, how does the “viability of SU-DHL-1 cells after wash-out” value (SU-DHL-1 cells [1]) read?
A: profound effects on the viability of SU-DHL-1 cells

Q: And the IC50 (SU-DHL-1 cells [2]; Homo sapiens, 96 h, SU-DHL-1, ALCL (ALK+), Day 4, read-out: CTG, IC50 μM, Day 4)?
A: 0.015 µM

Q: And the “CTG (% Max inh), Day 4” value (SU-DHL-1 cells [2]; SU-DHL-1, ALCL (ALK+), Day 4)?
A: (>95) %

Q: What about the cell proliferation (SU-DHL-1 cells [2]; SU-DHL-1, FIG. 5B, FIG. 16) of the same compound?
A: inhibit

Q: What about the tumor regression (SU-DHL-1 tumor cells; ALK+ALCL xenograph model SU-DHL-1, intermittent dosing, FIG. 19) of the same compound?
A: achieves tumor regression

Q: What about the “tumor volume, 5 days” value (SU-DHL-1 tumor cells; IP) of the same compound?
A: A (A<500 mm^3)

Q: What about the “tumor volume, 10 days” value (SU-DHL-1 tumor cells; IP) of the same compound?
A: A (A<500 mm^3)

Q: And the “tumor volume, 15 days” value (SU-DHL-1 tumor cells; IP)?
A: A (A<500 mm^3)

Q: What about the “tumor volume, 20 days” value (SU-DHL-1 tumor cells; IP) of the same compound?
A: A (A<500 mm^3)

Q: And the “tumor volume, 5 days” value (SU-DHL-1 tumor cells; IV)?
A: A (A<500 mm^3)

Q: And the “tumor volume, 10 days” value (SU-DHL-1 tumor cells; IV)?
A: A (A<500 mm^3)

Q: And the “tumor volume, 15 days” value (SU-DHL-1 tumor cells; IV)?
A: A (A<500 mm^3)

Q: What about the “tumor volume, 20 days” value (SU-DHL-1 tumor cells; IV) of the same compound?
A: A (A<500 mm^3)

Q: And the IC50 (SUP-M2 cells; 96 h, SUP-M2, ALCL (ALK+), Day 4, read-out: CTG, IC50 μM, Day 4)?
A: 0.086 µM

Q: What about the “CTG (% Max inh), Day 4” value (SUP-M2 cells; SUP-M2, ALCL (ALK+), Day 4) of the same compound?
A: (95) %

Q: And the cell proliferation (SUP-M2 cells; SUP-M2, FIG. 16)?
A: inhibit

Q: And the IC50 (KARPAS-299 cells; Homo sapiens, 96 h, KARPAS-299, ALCL (ALK+), Day 4, read-out: CTG, IC50 μM, Day 4)?
A: 0.084 µM

Q: What about the “CTG (% Max inh), Day 4” value (KARPAS-299 cells; KARPAS-299, ALCL (ALK+), Day 4) of the same compound?
A: (90) %

Q: What about the cell proliferation (KARPAS-299 cells; KARPAS-299, FIG. 16) of the same compound?
A: inhibit

Q: And the “degradation in multiple ALK+ALCL cell lines” value (STAT3)?
A: mediated degradation

Q: What about the tumor regression (SUP-M2 tumor cells) of the same compound?
A: achieves tumor regression

Q: And the IC50 (KI-JK cells; 96 h, ALCL (ALK+), Day 4, read-out: CTG, IC50 μM, Day 4)?
A: 0.047 µM

Q: What about the “CTG (% Max inh), Day 4” value (KI-JK cells; ALCL (ALK+), Day 4) of the same compound?
A: (97) %

Q: What about the cell proliferation (KI-JK cells; FIG. 16) of the same compound?
A: inhibit
